Key:
[1] = test system: Flag-tagged MDM2 in LS8817 cells; test: turnover of FLAG-tagged MDM2 and C464A mutant; assay type: cell-based, human
Text: FIG. 21A-B. Turnover of MDM2 is regulated post-translationally. […] Tubulin was used as a loading control. This experiment was repeated twice with similar results. (B) LS8817 cells transduced with either a FLAG-tagged MDM2 or a FLAG-tagged C464A mutant of MDM2 were selected and the turnover of the FLAG-tagged protein measured by immunoblot after protein synthesis was blocked with cycloheximide for the indicated amount of time. A representative immunoblot is shown and the mean and standard deviation was compiled from two independent experiments.

[2] = test system: seven RB-positive patient derived WD/DDLS cell lines; test: cell cycle distribution, propidium iodine and flow cytometry; assay type: cell-based, human; settings: two days of treatment
Procedure: Percentages annotated on graphs represent the mean of three or more independent experiments. Cells were stained with BrdU (20 μM for two hours) or annexin V as previously described (22, 48). […] was determined by staining with propidium iodine and FACS analyses (49).

[3] = test system: MDM2 in glioma (U87MG, U251, SNB19, DBTRG-05MG) and breast cancer (MDA453, T47D, ZR-75-1, and MCF7) cells; test: MDM2 levels in glioma and breast cancer cell lines; assay type: cell-based; settings: eight glioma and breast cancer cell lines
Text: FIG. 19A-C. Senescence associated with the downregulation of MDM2 is p53 and INK4 independent. […] This experiment was repeated three times with similar results in both LS8817 and LS141. […] The p53 mutational status of these cell lines (WT, wild type; R273H and L194F, missense mutations; if-DEL, in-frame deletion of 30 nucleotides at amino acid 368) were obtained from the p53 mutation database and the RIKEN bioresource databank and is consistent with the detection of p21 by immunoblot. (C) SNB19 cells, a p53 mutant and INK4A deficient cell, was transduced with the mutants described in panel A and their effect on senescence determined.
Antibodies against CDK4 (3F121), MDM2 (SMP-14), total RB (IFS), Cyclin A (H432), p16 (C20), and p53 (Bp53-12), were obtained from Santa Cruz Biotechnology, phospho-Rb 780 (#9307) from Cell Signalling, and ARF (3642) from Abeam. Treated cells were lysed with buffer composed of 50 mM Tris-HCl, pH7.4, 250 mM NaCl, 5 mM EDTA, 0.5% NP40, 2 mM PMSF, and supplemented with protease inhibitors. Eighty micrograms of protein were resolved by SDS-PAGE and transferred to PVDF membranes. Membranes were incubated overnight with antibodies (1:1000).

[4] = test system: MDM2 transcripts in WD/DDLS cell lines; test: MDM2 transcript levels by qPCR; assay type: cell-based, human; settings: two days; each cell line
LS8817 cells = test: PD0332991 induced senescence after knock down of p53 or INK4A products; assay type: cell-based, human
Procedure: LS8817 cells were infected with lentiviruses expressing either a scrambled (shSCR) or two independent p53 targeting (shp53a and shp53d2) shRNAs. […] The accumulation of senescence associated β-galactosidase (top), and the expression of MDM2 and p53 were determined by immunoblot (bottom). Coomassie staining of the gel indicated equivalent loading.

[5] = test system: seven RB-positive patient derived WD/DDLS cell lines; test: cell number by Coulter Counter; assay type: cell-based, human; settings: asynchronously growing cells, counted daily for 4 days
LS8817 and LS0082 cells = test: BrdU incorporation after release into drug-free medium; assay type: cell-based, human; settings: after seven days of drug treatment
Text: (§1) Mean percentage standard deviation). (*p<0.05). (A) Senescence-associated β-galactosidase and (B) HP1γ staining for senescence associated heterochromatic foci (SAHF) formation was quantitated for three or more independent experiments for each cell line. (*p<0.05). Representative phase contrast micrographs of cells stained for SA-β-gal or immunofluorescence staining for HP1γ in two of the cell lines before (ctrl) and after (PD) drug treatment are shown in the insets of FIGS. 2A and 2B, respectively. (C) BrdU incorporation. Cell lines were treated with PD0332991 for seven days, and released into drug-free medium containing BrdU for the number of days indicated. Error bars represent the standard deviation of the mean calculated from three independent trials.

[6] = test system: LS8107 and LS7785-1 cells; test: as above; assay type: cell-based, human; settings: after seven days of drug treatment
Text: as §1

normal and tumor cells = settings: both normal and tumor cells; cited from earlier work
[7] = test system: γH2AX and 53BP1 foci in LS8817 cells; test: DNA damage foci; assay type: cell-based, human
Text: (§2) Extracts from control and irradiated mouse embryo fibroblasts were included as a control. Tubulin is a control. (B) γH2AX and 53BP1 foci were scored in the indicated cell lines. As per (Doll et al., 2009; […] et al., 2012) having a cell with greater than 10 foci (white) is considered positive for DNA damage. As expected for WD/DDLS cell lines the basal level of DNA damage was quite high.

[8] = test system: γH2AX and 53BP1 foci in LS8107 and LS7785-10 cells; test: DNA damage foci; assay type: cell-based, human
Text: as §2

DBTRG-05MG glioma cells = test: senescence-associated β-galactosidase staining; assay type: cell-based
Procedure: (§3) Cells were plated at a concentration of 25,000 per well in a 4-well chamber slides (Lab-Tek) and treated for seven days with drug or shRNA as described above and stained for senescence-associated β-galactosidase (Cell Signaling kit #9860). Cell number was quantitated by DAPI staining and β-galactosidase staining quantitated as a proportion of total cells. Senescence associated heterochromatic foci were quantitated after cells were fixed with 4% paraformaldehyde, permeabilized with 0.1% Triton, blocked with 2% FBS, and stained with antibodies against HP1γ (1:5000 dilution, 2MOD-1G6 Millipore). Senescent cells were identified by immunofluorescence after treatment of slides with anti-mouse secondary antibodies and quantitation of focal SAHF as a percent of total cells (Leica Upright Confocal SP5 confocal microscope). Actin was marked using phalloidin staining (1:500, Invitrogen) and cells were counterstained with DAPI. Cell area was measured by with Metamorph software to calculate relative area per cell.

SNB19 glioma cells = test: senescence-associated β-galactosidase staining; assay type: cell-based
Procedure: as §3

DKMG glioma cells = test: senescence-associated β-galactosidase staining; assay type: cell-based
Procedure: as §3

MCF7 breast cancer cells = test: senescence-associated β-galactosidase staining; assay type: cell-based
Procedure: as §3

T98G glioma cells = test: senescence-associated β-galactosidase staining; assay type: cell-based; settings: after treatment
Procedure: as §3

CC(=O)c1c(C)c2cnc(Nc3ccc(N4CCNCC4)cn3)nc2n(C2CCCC2)c1=O [PD0332991]
stability of wild type Flag-tagged MDM2 [1]: still turned over
stability of the C464A mutant of MDM2 ([1]; Flag-tagged E3 ligase-deficient mutant): did not affect
cell cycle distribution [2]: accumulating in G0/G1
MDM2 levels [3]: decreased
MDM2 transcripts [4]: modestly reduced
PD0332991 induced senescence (LS8817 cells; p16 and Arf knocked down): not affected
SA-β-gal positive cells (LS8817 cells; p53 deficient cells (two independent shRNAs)): still accumulated
growth arrest [5]: growth arrest within a single cell cycle
return to the cell cycle after the drug was removed (LS8817 and LS0082 cells): did not
time to return to the cell cycle after the drug was removed [6]: ≤ 48 h
cell cycle arrest (normal and tumor cells): G1 arrest
number of γH2Ax and 5313P1 foci [7]: reduced
number of foci [8]: largely unaffected
PD-induced SA-β-gal (DBTRG-05MG glioma cells; 7 days of treatment): Y (Y, yes: the number of SA-β-gal cells increases at least 10X after 7 days of treatment)
number of SA-β-gal cells (DBTRG-05MG glioma cells; seven days after exposure): significant increase
PD-induced SA-β-gal (SNB19 glioma cells; 7 days of treatment): Y (Y, yes: the number of SA-β-gal cells increases at least 10X after 7 days of treatment)
number of SA-β-gal cells (SNB19 glioma cells; seven days after exposure): significant increase
PD-induced SA-β-gal (DKMG glioma cells; 7 days of treatment): Y (Y, yes: the number of SA-β-gal cells increases at least 10X after 7 days of treatment)
number of SA-β-gal cells (DKMG glioma cells; seven days after exposure): significant increase
PD-induced SA-β-gal (MCF7 breast cancer cells; 7 days of treatment): Y (Y, yes: the number of SA-β-gal cells increases at least 10X after 7 days of treatment)
number of SA-β-gal cells (MCF7 breast cancer cells; seven days after exposure): significant increase
increase in the number of SA-β-gal cells (T98G glioma cells): not observed
